From patent US8815852B2, “Carbamoyloxy arylalkan arylpiperazine analgesics” (SK Biopharmaceuticals Co., Ltd., priority 2007, dated 2014) come the findings set out here.

By ED50 is commonly meant the midpoint of the dose-response relation.

This test concerns male ICR mouse. Put plainly: Acetic acid-induced writhing test in mouse. In kind it is in vivo. Particulars: Mus musculus; for inhibition in vivo at 10 mg/kg: po, 1 h, at 10 po (method: 10 mg/kg oral, 1 hour before acetic acid), read-out: AA Writhing: Suppression ratio of Pain response; for ED50: ip, unit not given (method doses in mg/kg), read-out: AA Writhing: ED50. Here is the method:
2. Acetic Acid-Induced Writhing Test in Mouse
An acetic acid-induced writhing test is one of models for measuring an analgesic effect of drugs. A test material dissolved in a suitable vehicle was orally administered to a male ICR mouse weighing 30 to 35 g at an amount of 10 mg/kg. After 1 hour of the oral administration, […] of an aqueous 0.8% acetic acid solution was intraperitoneally injected into the male ICR mouse to induce the abdominal pain of the male ICR mouse. Right after the administration of acetic acid, the male ICR mouse was put into an empty cage, and the number of writhing behaviors of the mice was counted for 10 minutes. The term “writhing represents a reflex action in which the mouse overtly extends its abdomen by stretching its hind legs due to the abdominal pain. The analgesic effect of the test material is represented by the ‘suppression ratio of pain response’ {[(Writhing number of Vehicle-administered group−Writhing number of Test material-administered group)/(Writhing number of Vehicle-administered group)]×100%} or 50% of Effective amount (ED50 (median effective dose); an amount of test material that is required to suppress 50% of pain behaviors) of Test material. The ED50 (median effective dose) was determined by calculating the suppression ratio of pain response in at least three doses of test materials and subjecting to the linear regression.
(An intraperitoneal irritant provokes the stretching counted in writhing tests.)

Turning to `NC(=O)OC(CCN1CCN(c2ccc3c(c2)OCCO3)CC1)c1ccccc1` (centres unmarked) [Example 11, Carbamic acid 3-[4-(2,3-dihydro-benzo[1,4]dioxin-6-yl)-piperazin-1-yl]-1-phenyl-propyl ester], the inhibition in vivo at 10 mg/kg was 48%.
The same measure, in the same setting: with `NC(=O)OC(CCN1CCN(c2ccc(OC(F)(F)F)cc2)CC1)c1ccccc1` (centres unmarked) [Example 12, Carbamic acid 1-phenyl-3-[4-(4-trifluoromethoxy-phenyl)-piperazin-1-yl]-propyl ester] the figure was 18%.
On the same count and under the same terms, with `Cc1ccc(N2CCN(CCC(OC(N)=O)c3ccccc3)CC2)c(C)c1` (centres unmarked) [Example 13, Carbamic acid 3-[4-(2,4-dimethyl-phenyl)-piperazin-1-yl]-1-phenyl-propyl ester] the figure was 34%.
For `COc1ccc(N2CCN(CCC(OC(N)=O)c3ccccc3)CC2)c(OC)c1` (centres unmarked) [Example 17, Carbamic acid 3-[4-(2,4-dimethoxy-phenyl)-piperazin-1-yl]-1-phenyl-propyl ester], the inhibition in vivo at 10 mg/kg was 19%.
For the molecule `NC(=O)OC(CCN1CCN(c2ccc(Cl)c(C(F)(F)F)c2)CC1)c1ccccc1` (centres unmarked) [Example 18, Carbamic acid 3-[4-(4-chloro-3-trifluoromethyl-phenyl)-piperazin-1-yl]-1-phenyl-propyl ester], the inhibition in vivo at 10 mg/kg is 52%.
The same measure, in the same setting: with `Cc1cccc(C)c1N1CCN(CCC(OC(N)=O)c2ccccc2)CC1` (centres unmarked) [Example 19, Carbamic acid 3-[4-(2,6-dimethyl-phenyl)-piperazin-1-yl]-1-phenyl-propyl ester] the figure was 48%; with `NC(=O)OC(CCN1CCN(c2ccccc2O)CC1)c1ccccc1` (centres unmarked) [Example 23, Carbamic acid 3-[4-(2-hydroxy-phenyl)-piperazin-1-yl]-1-phenyl-propyl ester], 37%.
Take `Cc1cccc(N2CCN(CCC(OC(N)=O)c3ccccc3)CC2)c1` (centres unmarked) [Example 24, Carbamic acid 1-phenyl-3-(4-m-tolylpiperazin-1-yl)-propyl ester]: the ED50 was 0.81 mg/kg.
On to `Cc1ccc(N2CCN(CCC(OC(N)=O)c3ccccc3)CC2)cc1C` (centres unmarked) [Example 29, Carbamic acid 3-[4-(3,4-dimethyl-phenyl)-piperazin-1-yl]-1-phenyl-propyl ester], for which the inhibition in vivo at 10 mg/kg was 99%.
On the same count and under the same terms, with `NC(=O)OC(CCN1CCN(c2ccc3c(c2)OCO3)CC1)c1ccccc1` (centres unmarked) [Example 30, Carbamic acid 3-(4-benzo[1,3]dioxol-5-yl-piperazin-1-yl)-1-phenyl-propyl ester] the figure was 93%; with `NC(=O)OC(CCN1CCN(c2ccc(Cl)c(Cl)c2)CC1)c1ccccc1` (centres unmarked) [Example 31, Carbamic acid 3-[4-(3,4-dichloro-phenyl)-piperazin-1-yl]-1-phenyl-propyl ester], 85%; with `COc1ccc(Cl)cc1N1CCN(CCC(OC(N)=O)c2ccccc2)CC1` (centres unmarked) [Example 32, Carbamic acid 3-[4-(5-chloro-2-methoxy-phenyl)-piperazin-1-yl]-1-phenyl-propyl ester], 23%.
The same measure, in the same setting: with `COc1cc(OC)cc(N2CCN(CCC(OC(N)=O)c3ccccc3)CC2)c1` (centres unmarked) [Example 33, Carbamic acid 3-[4-(3,5-dimethoxy-phenyl)-piperazin-1-yl]-1-phenyl-propyl ester] the figure was 13%.
The same measure, in the same setting: with `NC(=O)OC(CCN1CCN(c2ncccn2)CC1)c1ccccc1` (centres unmarked) [Example 34, Carbamic acid 1-phenyl-3-(4-pyrimidin-2-yl-piperazin-1-yl)-propyl ester] the figure was 21%; with `NC(=O)OC(CCN1CCN(c2ccc(C(F)(F)F)cc2[N+](=O)[O-])CC1)c1ccccc1` (centres unmarked) [Example 35, Carbamic acid 3-[4-(2-nitro-4-trifluoromethyl-phenyl)-piperazin-1-yl]-1-phenyl-propyl ester], 50%.
In the case of `NC(=O)OC(CCN1CCN(c2ccc(C(F)(F)F)cc2)CC1)c1ccccc1` (centres unmarked) [Example 40, Carbamic acid 1-phenyl-3-[4-(4-trifluoromethyl-phenyl)-piperazin-1-yl]-propyl ester], the ED50 was determined as 1.64 mg/kg.
Turning to `COc1ccc(N2CCN(CCC(OC(N)=O)c3ccc([N+](=O)[O-])cc3)CC2)cc1` (centres unmarked) [Example 44, Carbamic acid 3-[4-(4-methoxy-phenyl)-piperazin-1-yl]-1-(4-nitro-phenyl)-propyl ester], the inhibition in vivo at 10 mg/kg came to 64%.
For `COc1ccc(N2CCN(CCC(OC(N)=O)c3cccc(Cl)c3)CC2)cc1` (centres unmarked) [Example 45, Carbamic acid 1-(3-chloro-phenyl)-3-[4-(4-methoxy-phenyl)-piperazin-1-yl]-propyl ester], the inhibition in vivo at 10 mg/kg came out at 62%.
Take `COc1ccc(N2CCN(CCC(OC(N)=O)c3ccccc3F)CC2)cc1` (centres unmarked) [Example 46, Carbamic acid 1-(2-fluoro-phenyl)-3-[4-(4-methoxy-phenyl)-piperazin-1-yl]-propyl ester]: the inhibition in vivo at 10 mg/kg stood at 42%.
On to `COc1ccc(C(CCN2CCN(c3ccc(OC)cc3)CC2)OC(N)=O)cc1` (centres unmarked) [Example 47, Carbamic acid 1-(4-methoxy-phenyl)-3-[4-(4-methoxy-phenyl)-piperazin-1-yl]-propyl ester], for which the inhibition in vivo at 10 mg/kg amounted to 53%.
Consider `COc1ccc(N2CCN(CCC(OC(N)=O)c3ccc(C(C)(C)C)cc3)CC2)cc1` (centres unmarked) [Example 48], for which the inhibition in vivo at 10 mg/kg came to 93%.
On to `COc1ccc(N2CCN(CCC(OC(N)=O)c3ccc4ccccc4c3)CC2)cc1` (centres unmarked) [Example 49, Carbamic acid 3-[4-(4-methoxy-phenyl)-piperazin-1-yl]-1-naphthalen-2-yl-propyl ester], for which the inhibition in vivo at 10 mg/kg was determined as 64%.
Same read-out and setting: with `COc1ccc(N2CCN(CCC(OC(N)=O)c3ccccc3Cl)CC2)cc1` (centres unmarked) [Example 50, Carbamic acid 1-(2-chloro-phenyl)-3-[4-(4-methoxy-phenyl)-piperazin-1-yl]-propyl ester] the figure was 49%; with `COc1ccc(N2CCN(CCC(OC(N)=O)c3ccccc3C(F)(F)F)CC2)cc1` (centres unmarked) [Example 51, Carbamic acid 3-[4-(4-methoxy-phenyl)-piperazin-1-yl]-1-(2-trifluoromethyl-phenyl)-propyl ester], 95%.
On the same count and under the same terms, with `COc1ccc(N2CCN(CCC(OC(N)=O)c3ccc(F)c(F)c3)CC2)cc1` (centres unmarked) [Example 52, Carbamic acid 1-(3,4-difluoro-phenyl)-3-[4-(4-methoxy-phenyl)-piperazin-1-yl]-propyl ester] the figure was 61%; with `COc1ccc(N2CCN(CCC(OC(N)=O)c3cccc(F)c3)CC2)cc1` (centres unmarked) [Example 53, Carbamic acid 1-(3-fluoro-phenyl)-3-[4-(4-methoxy-phenyl)-piperazin-1-yl]-propyl ester], 57%.
On the same count and under the same terms, with `COc1ccc(N2CCN(CCC(OC(N)=O)c3cccc(OC)c3)CC2)cc1` (centres unmarked) [Example 54, Carbamic acid 1-(3-methoxy-phenyl)-3-[4-(4-methoxy-phenyl)-piperazin-1-yl]-propyl ester] the figure was 69%; with `COc1ccc(N2CCN(CCC(OC(N)=O)c3cccc4ccccc34)CC2)cc1` (centres unmarked) [Example 55, Carbamic acid 3-[4-(4-methoxy-phenyl)-piperazin-1-yl]-1-naphthalen-1-yl-propyl ester], 16%; with `COc1ccc(N2CCN(CCC(OC(N)=O)c3ccc(C)cc3)CC2)cc1` (centres unmarked) [Example 56, Carbamic acid 3-[4-(4-methoxy-phenyl)-piperazin-1-yl]-1-p-tolyl-propyl ester], 93%.
Turning to `COc1ccc(N2CCN(CCC(OC(N)=O)c3cccc(C)c3)CC2)cc1` (centres unmarked) [Example 57, Carbamic acid 3-[4-(4-methoxy-phenyl)-piperazin-1-yl]-1-m-tolyl-propyl ester], the inhibition in vivo at 10 mg/kg came out at 52%.
Consider `COc1ccc(N2CCN(CCC(OC(N)=O)c3ccc(Cl)cc3Cl)CC2)cc1` (centres unmarked) [Example 58, Carbamic acid 1-(2,4-dichloro-phenyl)-3-[4-(4-methoxy-phenyl)-piperazin-1-yl]-propyl ester], for which the inhibition in vivo at 10 mg/kg is 16%.
For the molecule `COc1ccc(N2CCN(CCC(OC(N)=O)c3ccccc3C)CC2)cc1` (centres unmarked) [Example 59, Carbamic acid 3-[4-(4-methoxy-phenyl)-piperazin-1-yl]-1-o-tolyl-propyl ester], the inhibition in vivo at 10 mg/kg is 48%.
On the same count and under the same terms, with `COc1ccc(N2CCN(CCC(OC(N)=O)c3ccc(C)cc3C)CC2)cc1` (centres unmarked) [Example 60, Carbamic acid 1-(2,4-dimethyl-phenyl)-3-[4-(4-methoxy-phenyl)-piperazin-1-yl]-propyl ester] the figure was 62%.
Still for that read-out and setting: with `COc1ccc(N2CCN(CCC(OC(N)=O)c3ccc(C)c(C)c3)CC2)cc1` (centres unmarked) [Example 61, Carbamic acid 1-(3,4-dimethyl-phenyl)-3-[4-(4-methoxy-phenyl)-piperazin-1-yl]-propyl ester] the figure was 58%; with `COc1ccc(N2CCN(CCC(OC(N)=O)c3cc(C)ccc3C)CC2)cc1` (centres unmarked) [Example 62, Carbamic acid 1-(2,5-dimethyl-phenyl)-3-[4-(4-methoxy-phenyl)-piperazin-1-yl]-propyl ester], 62%.
